According to article PMC6222509, “Dibasic Derivatives of Phenylcarbamic Acid against Mycobacterial Strains: Old Drugs and New Tricks?” (Molecules : A Journal of Synthetic Chemistry and Natural …, 2018):
In brackets after ≈: the same amount, converted by molar mass. Like-named read-outs stand apart in the source and are kept apart here.

What was measured:
[1] = system: M. avium CNCTC My 330/80 (identical with ATCC 25291; MA 330/80); assay: in vitro antimycobacterial MIC, dilution micromethod in Šula's semisynthetic medium; type: cell-based, Mycobacterium avium
[2] = lipophilicity by isocratic RP-HPLC (log k, k, log kw, S); type: physicochemical; conditions: for log kw: extrapolated to 100% water from log k versus ϕM; for S (slope): slope of log k versus ϕM regression
Text: Octadecyl-functionalized silica gel was currently used as a stationary phase (SPh) and a […] of two solvents at different volume ratios modified retention properties of the SPh. Liquid binary mixtures of methanol (MeOH) with water were employed as mobile phases (MPhs) in the isocratic RP-HPLC. The MeOH modifier was preferred because of similarity of both observed and extrapolated lipophilicity parameters with the ones determined in the octan-1-ol/water partition system, considering also sensitivity to H-bond donor properties of investigated compounds [41].
The modifier was applied in different volume concentrations, which varied from […] (v/v) with 5% increments. This interval was chosen due to very high lipophilicity of investigated salts. Practically, lower volume concentration of MeOH, i.e., less than 85% (v/v) in used MPhs, caused uncertainty of retention times (tr) due to notable peaks broadening, especially within subsets 1i–l and 1m–p. […] The highest tr parameters were found for the molecules 1k (tr = 47.108 min) and 1l (tr = 70.012 min) in the MPh containing 85% proportion (v/v) of MeOH (Table 2).
According to the authors’ opinions based on systematic scientific literature survey, a current research paper was the first, which aimed the log kw parameters of 2-/3-alkoxyphenylcarbamic acid derivatives containing two centers of protonation. The log kw values were extrapolated from intercepts of a relationship between log k and volume fraction of the MPh modifier (ϕM) using the Snyder–Soczewiński linear solvent strength model. The relationship was justified by R > 0.9900, Adj. R^2 > 0.9750 as well as F > 180.00 for calculation of particular log kw parameters (Table 3).
The HPLC separation module Waters e2695 equipped with a Waters 2996 PDA Detector (Waters Corp., Milford, MA, USA) and chromatographic column Symmetry C18 × 5 μm, 4.6 × 250 mm, Part No. W21751W016 (Waters Corp.) were used for estimation of lipophilic properties of the compounds 1a–p at 21 °C.
Isocratic elution was carried out using mobile phases consisting of methanol p.a. (MeOH; Honeywell, Paris, France) and purified water in various volume ratios (80:20, 85:15, 90:10, 95:5 (v/v) and pure MeOH, respectively). Distilled water (CentralChem, Bratislava, Slovak Republic) was purified by the Aquinity2 P10 ultra-pure water system for production of ultra-pure water with an integrated 10 L permeate tank (membraPure, Hennigsdorf, Germany).
Total flow of the column was 1.0 mL/min, injection volume was 4 μL and column temperature was set to 40 °C. The detection wavelengths varying from 236 nm to 238 nm were chosen for current experimental procedures.
Lipophilicity of the compounds 1a–p was determined by reversed-phase high-performance liquid chromatography (RP-HPLC). Methanol (MeOH)/water mobile phases with varying volume ratio of the organic modifier and water (80:20, 85:15, 90:10, 95:5 (v/v) and pure MeOH, respectively) were chosen.
A methanolic solution of potassium iodine was used for dead time (td) determination. Retention factors (capacity factors; k) were calculated according to Equation (17):k = (tr− td)/td(17) where tr was retention time of a solute (in min), the td parameter denoted dead time of potassium iodine, an unretained analyte (in min).
The observed retention (tr) and dead (td) times were means of three independent determinations. Average td values of potassium iodine in used MPhs were as follows: 2.237 min (MeOH/water ratio (v/v) was 80:20), 2.245 min (85:15), 2.245 min (90:10), 2.228 min (95:5) and 2.210 min (pure MeOH), respectively. […]

[3] = Mycobacterium avium, ATCC25291, 336 h, 14-day cultivation, read-out: MIC MA 330/80 14-d
[4] = Mycobacterium avium, ATCC25291, 504 h, 21-day cultivation, read-out: MIC MA 330/80 21-d
[5] = mobile phase MeOH/water 80:20 (v/v)
[6] = mobile phase MeOH/water 85:15 (v/v)
[7] = mobile phase MeOH/water 90:10 (v/v)
[8] = mobile phase MeOH/water 95:5 (v/v)
[9] = Mycobacterium avium, ATCC25291, 336 h, read-out: MIC MA 330/80 14-d
[10] = Mycobacterium avium, ATCC25291, 504 h, read-out: MIC MA 330/80 21-d

| Compound | MIC [1, 3] [µM] | MIC [1, 4] [µM] | log kw [2] | k (retention factor) [2, 5] | log k [2, 5] | k (retention factor) [2, 6] | log k [2, 6] | k (retention factor) [2, 7] | log k [2, 7] | k (retention factor) [2, 8] | log k [2, 8] | k (retention factor) ([2]; mobile phase pure MeOH) | log k ([2]; mobile phase pure MeOH) | S (slope) [2] | MIC [1, 9] [µM] | MIC [1, 10] [µM] | MIC ([1]; Mycobacterium avium, ATCC25291, cultivation time not given, read-out: MIC MA 330/80) [µM] | MIC ([1]; Mycobacterium avium, ATCC25291, read-out: MIC MA 330/80) [µM] | MIC ([1]; 21-day cultivation, read-out: MIC MA 330/80 21-d) [µM] |
| --- | --- | --- | --- | --- | --- | --- | --- | --- | --- | --- | --- | --- | --- | --- | --- | --- | --- | --- | --- |
| CCCCOc1ccccc1NC(=O)OC(CN(CCC)CCC)CN1CCCC1 (centres unmarked) [1a] | 125 (≈ 52.5 µg/mL) | 125 (≈ 52.5 µg/mL) | 3.7688 | 5.2060 | 0.7165 | 3.7636 | 0.5756 | 2.4877 | 0.3958 | 1.5878 | 0.2008 | 0.9114 | −0.0403 | 3.7768 |  |  |  |  |  |
| CCCCCOc1ccccc1NC(=O)OC(CN(CCC)CCC)CN1CCCC1 (centres unmarked) [1b] | 62.5 (≈ 27.1 µg/mL) | 125 (≈ 54.2 µg/mL) | 4.0454 | 6.6904 | 0.8254 | 4.6302 | 0.6656 | 3.2092 | 0.5064 | 1.9235 | 0.2841 | 1.0479 | 0.0203 | 3.9834 |  |  |  |  |  |
| CCCCCCOc1ccccc1NC(=O)OC(CN(CCC)CCC)CN1CCCC1 (centres unmarked) [1c] | 32 (≈ 14.3 µg/mL) | 62.5 (≈ 28 µg/mL) | 4.6049 | 10.4858 | 1.0206 | 6.5494 | 0.8162 | 4.0300 | 0.6053 | 2.3351 | 0.3683 | 1.3449 | 0.1287 | 4.4634 |  |  |  |  |  |
| CCCCCCCOc1ccccc1NC(=O)OC(CN(CCC)CCC)CN1CCCC1.Cl.Cl (centres unmarked) [1d, 1-[2-[({[2-(heptyl-oxy)phenyl]amino}carbonyl)oxy]-3-(dipropylammonio)propyl]pyrrolidinium dichloride] |  |  | 4.9487 | 12.8588 | 1.1092 | 7.7304 | 0.8882 | 5.0373 | 0.7022 | 2.5421 | 0.4052 | 1.4365 | 0.1573 | 4.7736 | 32 | 32 |  |  |  |
| CCCCOc1cccc(NC(=O)OC(CN(CCC)CCC)CN2CCCC2)c1 (centres unmarked) [1e] | 62.5 (≈ 26.2 µg/mL) | 62.5 (≈ 26.2 µg/mL) | 4.0258 | 3.6174 | 0.5584 | 2.0811 | 0.3183 | 1.4054 | 0.1478 | 0.7155 | −0.1454 | 0.5063 | −0.2956 | 4.3434 |  |  |  |  |  |
| CCCCCOc1cccc(NC(=O)OC(CN(CCC)CCC)CN2CCCC2)c1.Cl.Cl (centres unmarked) [1f, 1-[2-[({[3-(pentyloxy)phenyl]amino}carbonyl)oxy]-3-(dipropylammonio)propyl]-pyrrolidinium dichloride] |  |  | 4.6722 | 4.5436 | 0.6574 | 3.0981 | 0.4911 | 1.7972 | 0.2546 | 0.8052 | −0.0941 | 0.5113 | −0.2913 | 4.9652 | 32 | 32 |  |  |  |
| CCCCCCOc1cccc(NC(=O)OC(CN(CCC)CCC)CN2CCCC2)c1 (centres unmarked) [1g] | 16 (≈ 7.16 µg/mL) | 16 (≈ 7.16 µg/mL) | 4.9446 | 6.6896 | 0.8254 | 4.0776 | 0.6104 | 2.3329 | 0.3679 | 1.3128 | 0.1182 | 0.6213 | −0.2067 | 5.1128 |  |  | 16 (≈ 7.16 µg/mL) |  |  |
| CCCCCCCOc1cccc(NC(=O)OC(CN(CCC)CCC)CN2CCCC2)c1.Cl.Cl (centres unmarked) [1h, 1-[2-[({[3-(heptyloxy)phenyl]amino}carbonyl)oxy]-3-(dipropylammonio)propyl]pyrrolidinium dichloride] |  |  | 5.5384 | 8.9557 | 0.9521 | 5.1988 | 0.7159 | 2.8609 | 0.4565 | 1.6188 | 0.2092 | 0.6091 | −0.2153 | 5.6830 | 8 | 16 |  | 16 |  |
| CCCCOc1ccccc1NC(=O)OC(CN(CCC)CCC)CN1CCCCCC1 (centres unmarked) [1i] | 62.5 (≈ 28 µg/mL) | 125 (≈ 56 µg/mL) | 4.4679 | 9.7297 | 0.9881 | 6.5358 | 0.8153 | 4.2073 | 0.6240 | 2.4854 | 0.3954 | 1.3198 | 0.1205 | 4.3102 |  |  |  |  |  |
| CCCCCOc1ccccc1NC(=O)OC(CN(CCC)CCC)CN1CCCCCC1.O=C(O)C(=O)O (centres unmarked) [1j, 1-[2-[({[2-(Pentyloxy)phenyl]amino}carbonyl)oxy]-3-(dipropylammonio)propyl]-azepanium oxalate] |  |  | 4.8466 | 12.1983 | 1.0863 | 7.9086 | 0.8981 | 4.8173 | 0.6828 | 2.8242 | 0.4509 | 1.3960 | 0.1449 | 4.6600 | 62.5 | 125 |  |  |  |
| CCCCCCOc1ccccc1NC(=O)OC(CN(CCC)CCC)CN1CCCCCC1 (centres unmarked) [1k] | 32 (≈ 15.2 µg/mL) | 62.5 (≈ 29.7 µg/mL) | 5.2359 | 20.0586 | 1.3023 | 11.0255 | 1.0424 | 6.3650 | 0.8038 | 3.3274 | 0.5221 | 2.1394 | 0.3303 | 4.9286 |  |  |  |  |  |
| CCCCCCCOc1cccc(NC(=O)OC(CN(CCC)CCC)CN2CCCCCC2)c1.O=C(O)C(=O)O (centres unmarked) [1l, 1-[2-[({[3-(hept-yloxy)phenyl]amino}carbonyl)oxy]-3-(dipropylammonio)propyl]azepanium oxalate] | 32 |  | 5.8966 | 30.4159 | 1.4831 | 16.4135 | 1.2152 | 9.1601 | 0.9619 | 4.2374 | 0.6271 | 2.5096 | 0.3996 | 5.5102 |  |  |  |  | 62.5 |
